Measured values as given in PubChem BioAssay (NCI).
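These data come from cells grown in 96-well plates and exposed to compound for 48 hours at five concentrations. At the GI50, growth is halved. The concentration for full growth arrest is given as TGI.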

Tests used:
Test in all cases: NCI anticancer screen, dose series, 48 h
SK-MEL-28 melanoma = tested on: SK-MEL-28 melanoma
UO-31 renal = tested on: UO-31 renal
SR leukemia = tested on: SR leukemia
HL-60(TB) leukemia = tested on: HL-60(TB) leukemia
K-562 leukemia = tested on: K-562 leukemia
IGROV1 ovarian = tested on: IGROV1 ovarian
SW-620 colon = tested on: SW-620 colon
SN12C renal = tested on: SN12C renal
CCRF-CEM leukemia = tested on: CCRF-CEM leukemia
ACHN renal = tested on: ACHN renal
SK-OV-3 ovarian = tested on: SK-OV-3 ovarian
DU-145 prostate = tested on: DU-145 prostate
NCI-H522 lung = tested on: NCI-H522 lung
RXF 393 renal = tested on: RXF 393 renal
SF-268 CNS = tested on: SF-268 CNS
PC-3 prostate = tested on: PC-3 prostate
U251 CNS = tested on: U251 CNS
MDA-MB-231 breast = tested on: MDA-MB-231 breast
KM12 colon = tested on: KM12 colon
SF-295 CNS = tested on: SF-295 CNS
OVCAR-8 ovarian = tested on: OVCAR-8 ovarian
OVCAR-4 ovarian = tested on: OVCAR-4 ovarian
M14 melanoma = tested on: M14 melanoma
COLO 205 colon = tested on: COLO 205 colon
HOP-92 NSCLC = tested on: HOP-92 NSCLC
TK-10 renal = tested on: TK-10 renal
MOLT-4 leukemia = tested on: MOLT-4 leukemia
BT-549 breast = tested on: BT-549 breast
HOP-62 NSCLC = tested on: HOP-62 NSCLC

Compound `CCOC(=O)c1ccc2c(c1)[n+](=O)c(C(=O)C1CCCS1)c(C(F)(F)F)n2[O-]` (stereo not drawn) has a GI50 (SK-MEL-28 melanoma) of 1630 nM, a TGI (SK-MEL-28 melanoma) of 3010 nM and a GI50 (UO-31 renal) of 156 nM. The TGI (UO-31 renal) was 303 nM, the GI50 (SR leukemia) was 208 nM and the TGI (SR leukemia) was 428 nM. It also gave a GI50 (HL-60(TB) leukemia) of 258 nM, a TGI (HL-60(TB) leukemia) of 643 nM and a GI50 (K-562 leukemia) of 197 nM. The TGI (K-562 leukemia) was 437 nM, the GI50 (IGROV1 ovarian) was 198 nM and the TGI (IGROV1 ovarian) was 417 nM. For the same compound, the GI50 (SW-620 colon) was 202 nM, the TGI (SW-620 colon) was 490 nM and the GI50 (SN12C renal) was 448 nM. It also gave a TGI (SN12C renal) of 1810 nM, a GI50 (CCRF-CEM leukemia) of 233 nM and a TGI (CCRF-CEM leukemia) of 550 nM. For the same compound, the GI50 (ACHN renal) was 172 nM, the TGI (ACHN renal) was 315 nM and the GI50 (SK-OV-3 ovarian) was 1370 nM. It also gave a TGI (SK-OV-3 ovarian) of 2670 nM, a GI50 (DU-145 prostate) of 428 nM and a TGI (DU-145 prostate) of 1050 nM. It also gave a GI50 (NCI-H522 lung) of 187 nM, a TGI (NCI-H522 lung) of 443 nM and a GI50 (RXF 393 renal) of 603 nM. It also gave a TGI (RXF 393 renal) of 1860 nM, a GI50 (SF-268 CNS) of 197 nM and a TGI (SF-268 CNS) of 458 nM. For the same compound, the GI50 (PC-3 prostate) was 248 nM, the TGI (PC-3 prostate) was 716 nM and the GI50 (U251 CNS) was 169 nM. For the same compound, the TGI (U251 CNS) was 315 nM, the GI50 (MDA-MB-231 breast) was 490 nM and the TGI (MDA-MB-231 breast) was 1780 nM. For the same compound, the GI50 (KM12 colon) was 389 nM, the TGI (KM12 colon) was 975 nM and the GI50 (SF-295 CNS) was 749 nM. For the same compound, the TGI (SF-295 CNS) was 2070 nM, the GI50 (OVCAR-8 ovarian) was 239 nM and the TGI (OVCAR-8 ovarian) was 597 nM. For the same compound, the GI50 (OVCAR-4 ovarian) was 220 nM, the TGI (OVCAR-4 ovarian) was 534 nM and the GI50 (M14 melanoma) was 388 nM. For the same compound, the TGI (M14 melanoma) was 1120 nM, the GI50 (COLO 205 colon) was 217 nM and the TGI (COLO 205 colon) was 459 nM. It also gave a GI50 (HOP-92 NSCLC) of 208 nM, a TGI (HOP-92 NSCLC) of 1170 nM and a GI50 (TK-10 renal) of 288 nM. For the same compound, the TGI (TK-10 renal) was 765 nM, the GI50 (MOLT-4 leukemia) was 237 nM and the TGI (MOLT-4 leukemia) was 519 nM. For the same compound, the GI50 (BT-549 breast) was 327 nM, the TGI (BT-549 breast) was 1080 nM and the GI50 (HOP-62 NSCLC) was 350 nM. The TGI (HOP-62 NSCLC) was 820 nM.
